# Measurements published in PMC12016938, “A small molecule PKCε inhibitor reduces hyperalgesia induced by paclitaxel or opioid withdrawal” (JCI Insight, 2025).
# Values joined by “and” are separate entries in the source; they are usually repeats but may differ in a detail not shown here. Equal values may be shown once. Read-outs that look alike come from different tables or passages of the source.
# Legend:
# PKCθ = PKCθ (Homo sapiens, UniProt Q04759); assay: Lance-FRET kinase assay, PKCθ; format: biochemical; design: purchased SignalChem Biotech
# PKCθ, sequence (Q04759 whole entry): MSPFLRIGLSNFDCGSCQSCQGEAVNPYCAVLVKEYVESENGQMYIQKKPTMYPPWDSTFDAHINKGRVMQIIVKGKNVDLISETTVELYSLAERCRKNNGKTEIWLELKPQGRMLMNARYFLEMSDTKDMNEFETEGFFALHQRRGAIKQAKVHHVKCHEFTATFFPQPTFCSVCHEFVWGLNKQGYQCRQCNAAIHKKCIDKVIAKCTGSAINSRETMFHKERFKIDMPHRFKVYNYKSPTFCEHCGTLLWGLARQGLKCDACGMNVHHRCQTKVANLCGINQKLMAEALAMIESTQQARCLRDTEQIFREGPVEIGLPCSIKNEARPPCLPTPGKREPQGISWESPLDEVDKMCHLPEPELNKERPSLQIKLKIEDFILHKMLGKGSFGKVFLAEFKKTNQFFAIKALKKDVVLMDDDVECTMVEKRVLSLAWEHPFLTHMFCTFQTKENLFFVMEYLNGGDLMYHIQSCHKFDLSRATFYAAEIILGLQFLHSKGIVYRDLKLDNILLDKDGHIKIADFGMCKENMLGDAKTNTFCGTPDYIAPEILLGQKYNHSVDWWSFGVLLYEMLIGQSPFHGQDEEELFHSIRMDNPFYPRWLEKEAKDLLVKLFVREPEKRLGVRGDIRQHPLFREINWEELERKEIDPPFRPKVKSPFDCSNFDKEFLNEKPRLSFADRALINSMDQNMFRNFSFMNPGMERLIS
# Method: Kinase assays. CP612 was assayed against His-AVI–tagged human PKCε (1 nM) produced in Sf9 cells, and ROCK1 (Carna Biosciences; 5 nM) using the Lance-FRET kinase assay system (PerkinElmer Revvity). Other human recombinant PKCs (SignalChem Biotech) were assayed in triplicate at the following concentrations: PKCβII 1.6 nM, PKCγ 500 pM, PKCδ 5 nM, PKCθ 500 pM, and PKCζ 500 pM. PKCs were incubated in a 15 μL reaction volume with kinase buffer (20 mM Tris-HCL [pH 7.4], 10 mM MgCl2, 0.25 mM EGTA, 0.1 mg/mL BSA, and 0.15% Triton X-100), 50 nM ULight-labeled CREBtide […] (PerkinElmer, TRF0107, Revvity), and test compound. […] After incubation at 27°C for another 60 minutes, phosphorylation was detected using a FlexStation 3 Microplate Reader (Molecular Devices) in LANCE TR-FRET mode (excitation = 340 nm, emission = 665 nm) and expressed as relative fluorescence units (RFU). The percentage of inhibition was calculated as: (signal without test compound − signal with test compound)/(signal without test compound − signal without ATP) × 100. […]
# Kinase assays used 11-point concentration-response curves and results were analyzed by nonlinear regression using Prism 9 (GraphPad Software) to determine IC50 values. […] Scores for pain threshold, conditioned place preference, and self-administration were analyzed by ANOVA using the following factors. […]
# [1] = test system: morphine self-administration;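 further: rats trained to self-administer intravenous morphine at 500 µg/kg per infusion, first under FR1 then FR3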
# [2] = biological target: T1, PRKG2 (Protein Kinase CGMP-Dependent 2) (Homo sapiens, UniProt Q13237); assay: scanMax kinome panel, PRKG2; format: binding; conditions: 200 nM CP612
# T1 construct: purchased Eurofins-DiscoverX
# T1 sequence (Q13237 whole entry): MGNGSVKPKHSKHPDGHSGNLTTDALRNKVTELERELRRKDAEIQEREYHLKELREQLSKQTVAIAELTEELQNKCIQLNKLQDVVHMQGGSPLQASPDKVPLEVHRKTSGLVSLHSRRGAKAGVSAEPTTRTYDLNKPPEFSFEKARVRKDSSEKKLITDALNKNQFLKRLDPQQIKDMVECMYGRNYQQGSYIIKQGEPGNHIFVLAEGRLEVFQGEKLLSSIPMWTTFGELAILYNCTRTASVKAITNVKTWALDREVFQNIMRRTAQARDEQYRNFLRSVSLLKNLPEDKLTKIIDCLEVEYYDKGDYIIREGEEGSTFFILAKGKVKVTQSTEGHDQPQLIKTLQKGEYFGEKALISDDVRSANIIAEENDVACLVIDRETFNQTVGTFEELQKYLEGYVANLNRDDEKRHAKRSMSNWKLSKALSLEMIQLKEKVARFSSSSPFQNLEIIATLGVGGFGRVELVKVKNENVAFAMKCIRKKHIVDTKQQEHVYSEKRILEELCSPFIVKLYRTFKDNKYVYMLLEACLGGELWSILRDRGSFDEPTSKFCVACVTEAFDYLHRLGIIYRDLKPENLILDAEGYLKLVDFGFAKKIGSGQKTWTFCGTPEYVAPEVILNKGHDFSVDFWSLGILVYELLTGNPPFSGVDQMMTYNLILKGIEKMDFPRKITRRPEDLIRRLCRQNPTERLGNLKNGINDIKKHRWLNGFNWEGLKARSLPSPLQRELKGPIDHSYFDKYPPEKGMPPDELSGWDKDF
# Method: (§1) CP612 was screened for kinome specificity at 200 nM against 468 kinases using the scanMax assay panel from Eurofins-DiscoverX. CP612 inhibited 10 other WT kinases besides PKCε, all to < 10% of control: CLK1 (CDC Like Kinase 1), CLK4, PKN1 (Protein kinase N1), PKN2, PKCδ, PKCη, PKCθ, PRKG2 (Protein Kinase CGMP-Dependent 2), ROCK1, and ROCK2.
# PKCδ = PKCδ (Homo sapiens, UniProt Q05655); assay: scanMax kinome panel, PKCδ; format: binding; design: purchased Eurofins-DiscoverX; conditions: 200 nM CP612; read-out: scanMax % of control, PKCδ
# PKCδ, sequence (Q05655 whole entry): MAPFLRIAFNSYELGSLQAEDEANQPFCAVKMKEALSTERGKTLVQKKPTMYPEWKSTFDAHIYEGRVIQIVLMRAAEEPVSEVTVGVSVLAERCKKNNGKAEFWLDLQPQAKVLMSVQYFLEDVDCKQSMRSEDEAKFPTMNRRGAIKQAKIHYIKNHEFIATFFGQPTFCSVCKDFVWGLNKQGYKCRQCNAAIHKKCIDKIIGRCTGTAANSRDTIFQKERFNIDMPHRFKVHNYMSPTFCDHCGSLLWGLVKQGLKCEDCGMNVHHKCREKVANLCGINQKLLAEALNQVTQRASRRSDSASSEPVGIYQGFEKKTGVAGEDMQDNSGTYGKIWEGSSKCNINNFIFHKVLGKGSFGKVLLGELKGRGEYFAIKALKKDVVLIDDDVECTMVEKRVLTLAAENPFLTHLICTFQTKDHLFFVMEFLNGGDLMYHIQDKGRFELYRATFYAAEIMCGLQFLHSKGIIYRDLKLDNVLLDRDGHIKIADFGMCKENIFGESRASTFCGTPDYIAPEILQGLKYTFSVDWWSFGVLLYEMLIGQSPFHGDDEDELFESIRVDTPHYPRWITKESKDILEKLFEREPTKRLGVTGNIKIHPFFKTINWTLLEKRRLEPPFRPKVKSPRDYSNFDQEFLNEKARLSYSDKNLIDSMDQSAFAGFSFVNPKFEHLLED
# Method: as §1
# [3] = test system: hyperalgesia induced by morphine withdrawal; assay: Reversal of hyperalgesia due to morphine withdrawal, von Frey SUDO; format: in vivo, C57BL/6J mice
# Description: We next tested if CP612 reverses hyperalgesia induced by withdrawal from repeated administration of morphine in male and female C57BL/6J mice. Since the pain thresholds of mice receiving repeated administration of saline were not affected by treatment with vehicle or CP612 injection (Figure 6), mice in this experiment were only treated with morphine. […] Both male and female mice that received vehicle continued to show hyperalgesia up to 4 weeks after the last injection of morphine.
structure (smiles),measurement,setting,value
N[C@H](CNC(=O)C1(c2ccc(Cl)cc2)CCCC1)c1ccc(C(=O)Nc2ccncc2)cc1 [CP612],inhibition at 0.03 µM,"PKCθ; 30 nM CP612, read-out: Inhibition of novel PKCs (PKCθ)",> 50%
same,IC50,PKCθ; Figure 1B PKC isozyme panel,0.0307 µM
same,D10 BP (PR1),"[1]; BP, Day 10, progressive ratio PR1, CP612 6 hours prior, group mean, n=7",25.57
same,D12 BP (PR2_WD),"[1]; BP, Day 12, progressive ratio PR2 withdrawal, CP612 6 hours prior, group mean, n=6",21.67
same,D13 BP (PR3_Nal),"[1]; BP, Day 13, progressive ratio PR3_Nal, CP612 6 hours prior, group mean, n=7",17.57
same,D12 BP (PR2_WD),"[1]; BP, PR2_WD, day 12, individual rats",40 and 15 and 20
same,Effect on morphine intake or responding (infusions and breaking point),"[1]; CP612 30 mg/kg i.p. 6 hours prior, progressive ratio tests 1-3",did not modify morphine intake or responding
same,D1 AH (FR1),"[1]; active hole responses, Day 1, fixed ratio 1, mean of CP612 group, n=7",16.14
same,D2 AH (FR1),"[1]; active hole responses, Day 2, fixed ratio 1, mean of CP612 group, n=7",13.86
same,D3 AH (FR1),"[1]; active hole responses, Day 3, fixed ratio 1, mean of CP612 group, n=7",16.29
same,D4 AH (FR1),"[1]; active hole responses, Day 4, fixed ratio 1, mean of CP612 group, n=7",14.57
same,D4 AH (FR3),"[1]; active hole responses, Day 4, fixed ratio 3, mean of CP612 group, n=7",14.57
same,D5 AH (FR3),"[1]; active hole responses, Day 5, fixed ratio 3, mean of CP612 group, n=7",25.86
same,D6 AH (FR3),"[1]; active hole responses, Day 6, fixed ratio 3, mean of CP612 group, n=7",25.71
same,D7 AH (FR3),"[1]; active hole responses, Day 7, fixed ratio 3, mean of CP612 group, n=7",27.86
same,D8 AH (FR3),"[1]; active hole responses, Day 8, fixed ratio 3, mean of CP612 group, n=7",35.00
same,D9 AH (FR3),"[1]; active hole responses, Day 9, fixed ratio 3, mean of CP612 group, n=7",37.86
same,D10 AH (PR1),"[1]; active hole responses, Day 10, PR1, CP612 6 hours prior, group mean, n=7",119.00
same,D12 AH (PR2_WD),"[1]; active hole responses, Day 12, PR2 withdrawal, CP612 6 hours prior, group mean, n=6",99.33
same,D13 AH (PR3_Nal),"[1]; active hole responses, Day 13, PR3_Nal, CP612 6 hours prior, group mean, n=7",78.29
same,AH (avg all),"[1]; active hole responses, average of all days D1-D9, mean of CP612 group, n=7",23.68
same,AH (avg last 3 days),"[1]; active hole responses, average of last 3 days, mean of CP612 group, n=7",33.57
same,D1 IH (FR1),"[1]; inactive hole responses, Day 1, fixed ratio 1, mean of CP612 group, n=7",7.43
same,D2 IH (FR1),"[1]; inactive hole responses, Day 2, fixed ratio 1, mean of CP612 group, n=7",12.14
same,D3 IH (FR1),"[1]; inactive hole responses, Day 3, fixed ratio 1, mean of CP612 group, n=7",12.43
same,D4 IH (FR1),"[1]; inactive hole responses, Day 4, fixed ratio 1, mean of CP612 group, n=7",8.71
same,D4 IH (FR3),"[1]; inactive hole responses, Day 4, fixed ratio 3, mean of CP612 group, n=7",8.71
same,D5 IH (FR3),"[1]; inactive hole responses, Day 5, fixed ratio 3, mean of CP612 group, n=7",13.86
same,D6 IH (FR3),"[1]; inactive hole responses, Day 6, fixed ratio 3, mean of CP612 group, n=7",7.43
same,D7 IH (FR3),"[1]; inactive hole responses, Day 7, fixed ratio 3, mean of CP612 group, n=7",4.57
same,D8 IH (FR3),"[1]; inactive hole responses, Day 8, fixed ratio 3, mean of CP612 group, n=7",6.43
same,D9 IH (FR3),"[1]; inactive hole responses, Day 9, fixed ratio 3, mean of CP612 group, n=7",5.57
same,D10 IH (PR1),"[1]; inactive hole responses, Day 10, PR1, CP612 6 hours prior, group mean, n=7",13.00
same,D12 IH (PR2_WD),"[1]; inactive hole responses, Day 12, PR2 withdrawal, CP612 6 hours prior, group mean, n=6",10.67
same,D13 IH (PR3_Nal),"[1]; inactive hole responses, Day 13, PR3_Nal, CP612 6 hours prior, group mean, n=7",8.86
same,D9 IH (avg all),"[1]; inactive hole responses, average of all days D1-D9, mean of CP612 group, n=7",8.73
same,D9 IH (avg last 3 days),"[1]; inactive hole responses, average of last 3 days, mean of CP612 group, n=7",5.52
same,D10 AH (PR1) Log,"[1]; log of active hole responses, Day 10, PR1, CP612 6 hours prior, group mean, n=7",2.04
same,D12 AH (PR2_WD) Log,"[1]; log of active hole responses, Day 12, PR2 withdrawal, CP612 6 hours prior, group mean, n=6",1.94
same,D13 AH (PR3_Nal) Log,"[1]; log of active hole responses, Day 13, PR3_Nal, CP612 6 hours prior, group mean, n=7",1.85
same,D10 IH (PR1) Log,"[1]; log of inactive hole responses, Day 10, PR1, CP612 6 hours prior, group mean, n=7",1.03
same,D12 IH (PR2_WD) Log,"[1]; log of inactive hole responses, Day 12, PR2 withdrawal, CP612 6 hours prior, group mean, n=6",0.89
same,D13 IH (PR3_Nal) Log,"[1]; log of inactive hole responses, Day 13, PR3_Nal, CP612 6 hours prior, group mean, n=7",0.88
same,D10 Inf (PR1) Log,"[1]; log of infusions, Day 10, PR1, CP612 6 hours prior, group mean, n=7",0.94
same,D12 Inf (PR2_WD) Log,"[1]; log of infusions, Day 12, PR2 withdrawal, CP612 6 hours prior, group mean, n=6",0.91
same,D13 Inf (PR3_Nal) Log,"[1]; log of infusions, Day 13, PR3_Nal, CP612 6 hours prior, group mean, n=7",0.85
same,D12 Inf (PR2_WD) Log,"[1]; log of infusions, PR2_WD, day 12, individual rats",1.04 and 0.85 and 0.90
same,D10 Latency (PR1) Log,"[1]; log of latency, Day 10, PR1, CP612 6 hours prior, group mean, n=7",-0.40
same,D12 Latency (PR2_WD) Log,"[1]; log of latency, Day 12, PR2 withdrawal, CP612 6 hours prior, group mean, n=6",-0.00262
same,D13 Latency (PR3_Nal) Log,"[1]; log of latency, Day 13, PR3_Nal, CP612 6 hours prior, group mean, n=7",-0.48
same,D2 Inf (FR1),"[1]; morphine infusions, Day 2, fixed ratio 1, mean of CP612 group, n=7",10.71
same,D3 Inf (FR1),"[1]; morphine infusions, Day 3, fixed ratio 1, mean of CP612 group, n=7",10.86
same,D4 Inf (FR1),"[1]; morphine infusions, Day 4, fixed ratio 1, mean of CP612 group, n=7",11.00
same,D4 Inf (FR3),"[1]; morphine infusions, Day 4, fixed ratio 3, mean of CP612 group, n=7",11.00
same,D5 Inf (FR3),"[1]; morphine infusions, Day 5, fixed ratio 3, mean of CP612 group, n=7",6.43
same,D6 Inf (FR3),"[1]; morphine infusions, Day 6, fixed ratio 3, mean of CP612 group, n=7",7.14
same,D7 Inf (FR3),"[1]; morphine infusions, Day 7, fixed ratio 3, mean of CP612 group, n=7",7.71
same,D8 Inf (FR3),"[1]; morphine infusions, Day 8, fixed ratio 3, mean of CP612 group, n=7",9.57
same,D9 Inf (FR3),"[1]; morphine infusions, Day 9, fixed ratio 3, mean of CP612 group, n=7",10.29
same,D10 Inf (PR1),"[1]; morphine infusions, Day 10, progressive ratio test PR1, CP612 6 hours prior, group mean, n=7",8.86
same,D12 Inf (PR2_WD),"[1]; morphine infusions, Day 12, progressive ratio test PR2 in withdrawal, CP612 6 hours prior, group mean, n=6",8.17
same,D13 Inf (PR3_Nal),"[1]; morphine infusions, Day 13, progressive ratio test PR3_Nal, CP612 6 hours prior, group mean, n=7",7.29
same,Inf (avg all),"[1]; morphine infusions, average of all self-administration days D1-D9, mean of CP612 group, n=7",9.33
same,Inf (avg last 3 days),"[1]; morphine infusions, average of last 3 days, mean of CP612 group, n=7",9.19
same,D12 Inf (PR2_WD),"[1]; morphine infusions, progressive ratio session PR2_WD, day 12, individual rats",11 and 7 and 8
same,D1 Inf (FR1),"[1]; morphine infusions, self-administration Day 1, fixed ratio 1, mean of CP612 group, n=7",10.29
same,D1 Latency (FR1),"[1]; time to first infusion, Day 1, fixed ratio 1, mean of CP612 group, n=7",3.00 min
same,D2 Latency (FR1),"[1]; time to first infusion, Day 2, fixed ratio 1, mean of CP612 group, n=7",1.98 min
same,D3 Latency (FR1),"[1]; time to first infusion, Day 3, fixed ratio 1, mean of CP612 group, n=7",0.73 min
same,D4 Latency (FR3),"[1]; time to first infusion, Day 4, fixed ratio 3, mean of CP612 group, n=7",0.44 min
same,D5 Latency (FR3),"[1]; time to first infusion, Day 5, fixed ratio 3, mean of CP612 group, n=7",0.20 min
same,D6 Latency (FR3),"[1]; time to first infusion, Day 6, fixed ratio 3, mean of CP612 group, n=7",0.53 min
same,D7 Latency (FR3),"[1]; time to first infusion, Day 7, fixed ratio 3, mean of CP612 group, n=7",0.53 min
same,D8 Latency (FR3),"[1]; time to first infusion, Day 8, fixed ratio 3, mean of CP612 group, n=7",0.46 min
same,D9 Latency (FR3),"[1]; time to first infusion, Day 9, fixed ratio 3, mean of CP612 group, n=7",0.44 min
same,D10 Latency (PR1),"[1]; time to first infusion, Day 10, PR1, CP612 6 hours prior, group mean, n=7",0.60 min
same,D12 Latency (PR2_WD),"[1]; time to first infusion, Day 12, PR2 withdrawal, CP612 6 hours prior, group mean, n=6",1.44 min
same,D13 Latency (PR3_Nal),"[1]; time to first infusion, Day 13, PR3_Nal, CP612 6 hours prior, group mean, n=7",0.75 min
same,D9 Latency (avg all),"[1]; time to first infusion, average of all days D1-D9, mean of CP612 group, n=7",0.92 min
same,D9 Latency (avg last 3 days),"[1]; time to first infusion, average of last 3 days, mean of CP612 group, n=7",0.48 min
same,"scanMax % of control, PRKG2",[2],< 10 % of control
same,remaining binding at 0.2 µM,PKCδ,< 10%
same,Effect on established morphine-withdrawal hyperalgesia,"[3]; male and female mice, CP612 20 mg/kg i.p. 2 weeks after last morphine injection",reversed
same,Duration of reversal of hyperalgesia,[3]; single dose CP612 20 mg/kg i.p.,2 weeks
